Here are results for three molecules from publication PMC5937083, “Physicochemical, Stress Degradation Evaluation and Pharmacokinetic Study of AZGH101; a New Synthesized COX2 Inhibitor after I.V. and Oral Administration in Male and Female Rats” (Iranian Journal of Pharmaceutical Research : IJPR, 2018).

In brackets after ≈: the same amount, converted by molar mass. Where two headings read alike, the source gives them in different places.

Data set [1] is described as follows: Forced degradation stability study (ICH guideline for new drug substance). As to conditions: for Forced tests results, Mean ±SD: fraction recovered intact, 3 replications. Type of data set: physicochemical. On the procedure: The stability study was conducted according to forced degradation protocol ICH guideline for new drug substance ([14]-[16]). In brief, the stability of AZGH101 at acidic, basic, and neutral medium was evaluated. Moreover, the effect of oxidative condition (H2O2, 3 and 30%), thermal degradation at solid state, and photolysis on the stability of AZGH101 was examined.

Data set [2] in a line: Aqueous solubility (OECD Guideline No. 105). Type of data set: physicochemical. As to conditions: water; 3 replications. On the procedure:
(§1) Melting point was determined with an Electrothermal 9200 apparatus (UK). Aqueous solubility and octanol/water partition coefficient of the synthesized derivative was determined according to Organisation for Economic Co-operation and Development (OECD) Guideline for Testing of Chemicals, No.105, and No. 107 respectively ([11]-[13]).

The test system of the next data set is COX-2. As to conditions: cited from earlier work.
Data set [3] can be described thus: Pharmacokinetic study after oral and intravenous administration to Wistar rats. Type of data set: in vivo. The note with it: for k el: Wistar, read-out: β (elimination rate constant) (converted); for bioavailability: oral 20 mg/kg vs intravenous 10 mg/kg; for half-life: read-out: t1/2 β (converted). On the procedure: Male and female Wistar rats weighting 250 ± 10 g were used. They were kept at 25 ± 1 °C temperature and controlled humidity with 12 h light/dark cycle. The animals were fasted overnight before the experiment and had free access to water. The study protocol was approved by the local committee for animal experiments of Shahid Beheshti University of Medical Sciences (Tehran, Iran).
Male or female rats were chosen randomly (6 rats/group) and assigned to receive […] solution in normal saline for intravenous (IV) via the tail vein or oral administration via oral gavages. The administered doses in both sexes for intravenous (IV) and oral studies were 10 mg/kg and 20 mg/kg, respectively. Blood samples were collected from the tail vein immediately prior to administration (blank sample) and at 0.08, 0.25, 0.5, 1, 2, 4, 6, 8, 10, 21 and 22 h after administration into heparinized micro-tubes. Blood samples were centrifuged at 1000 g for 10 min and the separated plasmas were kept at –20 °C until analysis.
Pharmacokinetic analyses were performed using WinNonlin software (Pharsight Corporation, Mountain View, USA, Version 3.2) and two-compartmental model was chosen. The following pharmacokinetic parameters were estimated: terminal elimination half-life (t1/2), area under the plasma concentration versus time curve from zero to the infinity (AUC 0-∞), distribution and elimination rate constants (α, β), volume of distribution (Vd), and total body clearance (CL). The peak plasma concentration (Cmax) and the time to reach Cmax (Tmax) for oral dose were obtained directly from the observed individual plasma concentration-time data.

A short description of data set [4]: Octanol/water partition coefficient, log P (OECD Guideline No. 107). Type of data set: physicochemical. The note with it: n = 3, read-out: log P (logarithm of octanol/water partition coefficient). On the procedure:
as §1

The conditions of data set [5]: 'It was reported'; cited from earlier work.
For data set [6] the following is noted: cited from earlier work.
The mark [7] stands for this setting: oral 20 mg/kg, female Wistar rats.
The mark [8] stands for this setting: oral 20 mg/kg, male Wistar rats.
[9] abbreviates: rat, plasma, intravenous 10 mg/kg, female Wistar rats.
Where [10] appears, read: rat, plasma, intravenous 10 mg/kg, male Wistar rats.
[11] abbreviates: rat, plasma, oral 20 mg/kg, female Wistar rats.
[12] abbreviates: rat, plasma, oral 20 mg/kg, male Wistar rats.

Regarding `CS(=O)(=O)c1ccc(-c2cc(C(=O)O)c3cc(C(=O)c4ccccc4)ccc3n2)cc1` [AZGH101, 6-benzoyl-2-(4-(methylsulfonyl)phenyl)quinoline-4-carboxylic acid], the “Forced tests results, Mean ±SD” value is reported as 0.95±0.02 in data set [1] (Hydrolysis (Acid)); 0.92±0.03 in data set [1] (Hydrolysis (Base)); 0.94±0.02 in data set [1] (Hydrolysis (Buffer pH=7)); 0.93±0.04 in data set [1] (Oxidative stress (H2O2-3%)); 0.91±0.02 in data set [1] (Oxidative stress (H2O2-30%)); 0.94±0.02 in data set [1] (Photodegradation (Acid)). In addition, the “Forced tests results, Mean ±SD” value was found to be 0.94±0.01 in data set [1] (Photodegradation (Base)), 0.95±0.02 in data set [1] (Photodegradation (Buffer pH=7)) and 0.96±0.03 in data set [1] (Thermal Degradation (solid phase)). For the same molecule, the AZGH101 recovered intact result in data set [1] (in all of the examined stress conditions) is “more than 90%”. Also, in data set [2], the concentration in solution (solubility) was 1.4 ± 0.17 µg/mL (≈ 3.24 µM). For the same molecule, the IC50 in the data set on COX-2 was 77 nM. In the data set with COX-2, the “selectivity index (COX-1 IC50 / COX-2 IC50)” value was “less than 500”. Also, the “tendency against inhibition of COX-2, times greater than ketoprofen” value in the data set on COX-2 (relative to ketoprofen) was “about 10 times”. For the same molecule, the k el in data set [3] (female, rat, plasma, iv, 10 mg/kg, intravenous 10 mg/kg, female Wistar rats) was 9.72e-05 s⁻¹; in data set [3] (female, rat, plasma, po, 20 mg/kg, oral 20 mg/kg, female Wistar rats), 3.61e-05 s⁻¹; in data set [3] (male, rat, plasma, iv, 10 mg/kg, intravenous 10 mg/kg, male Wistar rats), 9.72e-05 s⁻¹; in data set [3] (male, rat, plasma, po, 20 mg/kg, oral 20 mg/kg, male Wistar rats) it was 3.89e-05 s⁻¹. Moreover, the “α (distribution rate constant)” value in data set [3] (intravenous 10 mg/kg, female Wistar rats) worked out at 3.70 ± 0.80 h⁻¹; in data set [3] (intravenous 10 mg/kg, male Wistar rats) it was 4.25 ± 0.99 h⁻¹; in data set [3] (setting [7]) it was 3.86 ± 2.99 h⁻¹; in data set [3] (setting [8]) it was 3.34 ± 1.26 h⁻¹. Moreover, the “β (elimination rate constant)” value is 0.355 ± 0.006 h⁻¹ in data set [3] (intravenous 10 mg/kg, female Wistar rats, 10 mg/kg) and 0.349 ± 0.008 h⁻¹ in data set [3] (intravenous 10 mg/kg, male Wistar rats, 10 mg/kg). Moreover, the figures for the Cl in data set [3] (setting [7]) and in data set [3] (setting [8]) were 31.73 ± 3.31 mL/h and 32.45 ± 1.65 mL/h, respectively. Besides, the Ka in data set [3] (setting [7]) came to 1.00 ± 0.10 h⁻¹; in data set [3] (setting [8]), 0.92 ± 0.18 h⁻¹. The Vd in data set [3] (setting [7]) worked out at 245.87 ± 44.86 mL; in data set [3] (setting [8]), 233.55 ± 27.82 mL; in data set [3] (rat, plasma, intravenous 10 mg/kg, female Wistar rats, read-out: Vd), 89.3 ± 7.68 mL; in data set [3] (rat, plasma, intravenous 10 mg/kg, male Wistar rats, read-out: Vd), 94.1 ± 6.42 mL. Also, the bioavailability in data set [3] (rat, plasma, Wistar rats, both sexes, read-out: oral absolute bioavailability) is ~27%; in data set [3] (rat, plasma, female Wistar rats, read-out: F (oral absolute bioavailability)) it was 27.73 ± 0.01%; in data set [3] (rat, plasma, male Wistar rats, read-out: F (oral absolute bioavailability)), 26.02 ± 0.03%. For the same molecule, the AUC(0-inf) in data set [3] (setting [9]) came to 79400 ± 5810 ng·h/mL; in data set [3] (setting [10]), 77100 ± 3620 ng·h/mL; in data set [3] (setting [11]) it was 41300 ± 4200 ng·h/mL; in data set [3] (setting [12]) it was 42800 ± 2240 ng·h/mL. Besides, the C0 in data set [3] (setting [9]) came out at 86.8 ± 11.3 µg/mL; in data set [3] (setting [10]) it was 92.3 ± 11 µg/mL. Besides, the clearance in data set [3] (setting [9]) was 0.527 mL/min; in data set [3] (setting [10]), 0.541 mL/min. Moreover, the half-life was 1.97 ± 0.06 h in data set [3] (setting [9]), 2.01 ± 0.04 h in data set [3] (setting [10]), 5.34 ± 0.48 h in data set [3] (setting [11]) and 4.99 ± 0.52 h in data set [3] (setting [12]). In addition, the figures for the Cmax in data set [3] (setting [11]) and in data set [3] (setting [12]) were 21.8 ± 1.33 µg/mL and 20.4 ± 1.49 µg/mL, respectively. Further, the Tmax in data set [3] (setting [11]) and in data set [3] (setting [12]) was 0.5 h each time. For the same molecule, the logP in data set [4] was 3.82 ± 0.001.
Take `Cc1ccc(-c2cc(C(F)(F)F)nn2-c2ccc(S(N)(=O)=O)cc2)cc1` [celecoxib]: the solubility in water in data set [5] is 3.3 µg/mL (≈ 8.65 µM).
Turning to `CC(C(=O)O)c1cccc(C(=O)c2ccccc2)c1` (stereo not drawn) [ketoprofen], in data set [6], the “log P” value is 3.1.

For orientation: solubility means how much of the substance goes into solution per volume. For orientation: IC50 means the concentration needed to halve the response being measured. The term bioavailability denotes the share of a dose that reaches the circulation, judged against a reference dose that is usually intravenous. The term AUC(0-inf) denotes total exposure, with the tail of the curve extrapolated. Lower therefore signals less exposure. As a reminder, the Cmax is the maximum level reached in the sampled fluid or tissue. What is called Tmax is the time from dosing to the highest level. One may read the log P as the decadic logarithm of the partition coefficient of the neutral form, usually between octanol and water.
